Experimental data as given in patent publication US9879058B2, “Use of compounds that selectively modulate astrocytic release of substances through hemichannels of connexins and pannexins, without influencing gap junctions, for the treatment of psychiatric disorders” (Universidad Andres Bello, priority 2012, dated 2018).
Entries after “also recorded” stand apart in the source; their conditions may differ. No end group written: not given here.

Experiments:
[1] = system: hippocampal primary neuronal cultures; assay: ATP and glutamate release in neuronal cultures; assay type: cell-based, rat; conditions: peptide 1 mM; neuronal cultures without astrocytes
Description: G.2. Neuronal cultures: Hippocampal neurons were obtained from hippocampus of E18 rats. Briefly, hippocampi were dissected as mentioned above for astrocyte cultures. Cells were seeded directly on poly-L-ornithine coated coverslips (1×10^5 cells/coverslip) in Neurobasal medium supplemented with penicillin (5 U/ml), streptomycin (5 μg/ml), B27 supplement and glutamax. Partial medium changes (¼) were done twice a week. H. Dye uptake: For single image visualization of dye uptake, astrocytes were bathed in recording solution [in mM: NaCl (148), KCl (5), CaCl2 (1.8), MgCl2 (1), glucose (5), HEPES (5), pH=7.4] containing 5 μM ethidium (Etd) (Sigma-Aldrich, St-Louis, Mo.), and fluorescence intensity was recorded for 10 min in selected cells (ROI, regions of interest). […] Metafluor software (version 6.2R5, Universal Imaging Co., Downingtown, Pa., USA) was used for off-line image analysis and fluorescence quantification.
I. Measurement of ATP and glutamate release induced by TAT-Cx43L2: Neurons were plated in multi well culture trays (10^6 cells/well/0.5 ml) and 48 h later were used for experiments. Extracellular ATP was measured by luciferin/luciferase bioluminescence assay kit (Sigma-Aldrich, St. Louis, Mo., USA). […]

[2] = system: Sprague Dowley rats; assay: Auditory fear conditioning with microinfusion into the basolateral amygdala; assay type: in vivo, rat
Description: A. Animals: All procedures involving animals were in accordance to NIH guidelines and with approval of the bioethical committee of the Universidad Andrés Bello. Sprague Dowley rats (˜60 d old, ˜250 g) were caged individually at 22° C., 12/12 h light/dark cycle. The rats remained in their home box throughout the study, and were removed only briefly for drug microinfusion. B. Drugs: TAT-Cx43L2 ([…] (SEQ ID NO: 1), LifeTein, South Plainfield, N.J., USA, >90% purity) was dissolved in PBS to yield final solutions of 1 mM, 100 μM, 10 μM, 1 μM or 100 nM. Unless stated otherwise, the concentration used for microinfusions of TAT-Cx43L2 was 1 mM. As a control, TAT-Cx43L2^H126K/I130N was used at 1 mM. Gap27 (AnaSpec, Fremont, Calif., USA, >95% purity) and Gap27 scramble were dissolved to a final concentration of 1 mM. For the recovery cocktail, 100 mM glutamate (Sigma), D-serine (200 nM), glutamine (100 mM), ATP (100 μM), lactate (10 mM) and glycine (100 nM) were diluted in sterile saline. C. Apparatus: All behavioral essays were performed in a sound attenuating cubicle. Conditioning and tone testing were conducted in different chambers. For conditioning, rats were placed in a Plexiglas chamber with a metal grid floor (40 cm×40 cm×40 cm). The chamber was dimly illuminated by a red light. For testing, rats were placed in a different Plexiglas chamber without the metal grid (60 cm×40 cm) dimly illuminated by a white light bulb. A video camera was mounted at the top of each chamber to allow digital recording throughout the experiments. D. Surgery and histology: Under ketamine/xylazine anesthesia ([…], respectively), rats were stereotaxically implanted with bilateral 22-gauge stainless steel cannulas aimed 1.0 mm above the basolateral amygdala (3.0 mm posterior to Bregma, 5.3 mm lateral to the midline, and 8.0 mm ventral to the skull surface (Paxinos, G., Watson, C. (1998). The Rat Brain in Stereotaxic Coordinates; Press A, editor. San Diego). The cannulas were fixed with acrylic dental cement and secured by 4 skull screws. A stylus was placed inside the guide cannula to prevent clogging. Rats were given at least 7 days to recover before experimental procedures began.
In all experiments, stylus was removed from the guide cannula, and a 28-gauge injection cannula was inserted through the guide cannula, extending 1.0 mm beyond its tip into the BLA. Drugs were infused slowly via the injection cannula, connected by PE20 tubing to Hamilton microsyringes driven by a microinfusion pump. Infusions were of 0.25 μl per hemisphere at a rate of 0.32 μl/min. Following drug infusion, injecting cannulaes were left in place for 10 minutes to allow drug diffusion away from the cannula tip. Cannula placement and maximal diffusion was verified by infusing 0.5 μl of India ink in a group of 5 rats. The maximal diffusion spread observed included only lateral and basal amygdala nuclei. At the end of all experiments, animals were anesthetized as above and perfused intracardially with saline, 4% buffered paraformaldehyde. Brains were extracted and postfixed in 30% sucrose until density equaled that of sucrose. […] Animals with histological lesions beyond the size of the cannula tip and guide cannula diameter were excluded from the analysis.
E. Behavioral procedures: The conditioning is based on the animal learning that a previously neutral stimulus (a conditioned stimulus, CS; e.g. an innocuous sound) becomes predictive of a stressful stimulus (unconditioned stimulus, US; e.g. footshock). In all of experiments, rats were habituated to handling during the 7 recovery days and also habituated to the training and testing chambers for 3 days, 10 min each day. On the conditioning day, the animals were left in the chamber for 3 minutes before beginning of the training. Each training session consisted of 3 CS-US pairings in 30 s intervals. […]

[3] = 1 mM into BLA 10 min before training

## YGRKKRRQRRRDGANVDMHLKQIEIKKFKYGIEEHGK [TAT-Cx43L2, synthetic cell-permeable peptide corresponding to the Cx43L2 region (aa 119-144) of the cytoplasmic loop of Cx43]
[1]
  ATP release in neuronal cultures: did not affect
  glutamate release in neuronal cultures: did not affect
[2]; [3]
  long term fear memory (freezing to tone) 24 h after training: strongly impaired fear conditioning memory consolidation; also recorded: complete amnesia
  short term memory (freezing to tone between the 3 pairings during training): not affected; also recorded: unaffected short term memory
[2]; microinfusion into BLA
  concentration dependence of amnesic effect: concentration dependent
  lower concentration still capable of inducing amnesic effects: 10 nM
[2]; microinjection into BLA 6 h after learning
  memory when injected 6 h after training: had no effects on memory when injected 6 h after training; also recorded: no memory deficits
[2]; retrained 48 h after the initial conditioning
  learning capacity on retraining: recovered their capacity to learn; also recorded: recovered their learning capacity
